Laboratory results taken from US20100160342A1, “Compositions of Topical Ocular Solutions to Deliver Effective Concentrations of Active Agent to the Posterior Segment of the Eye” (ALCON RESEARCH, LTD., priority 2008, published 2010).

How the values were obtained:
[1] = Text: Another preferred criterion for improving the bioavailability of the active agent is establishing a pH range for the composition which provides the highest solubility. It will be apparent to the skilled artisan that the pH of the composition will depend upon the concentration and the salt form of the active agent in the composition.
[2] = Ocular comfort / stinging upon topical administration to the eye
Text: It is well known that acidic solutions alone cause ocular stinging.

[3] = in vivo

| solubility versus theoretical solubility predicted by the Handerson-Hasselbach relationship [1] | ocular stinging / comfort ([2]; ophthalmic solution administered topically to the eye) | aqueous humor (AqH) drug level, 0.5% HPMC versus 0% HPMC [3] [fold] | retina drug level, 0.5% HPMC versus 0% HPMC [3] [% HPMC ˜0% HPMC] | ocular stinging / comfort ([2]; in vivo) | Compound | solubility compared with the free base [1] |
| --- | --- | --- | --- | --- | --- | --- |
| does not exhibit this solubility dip | more comfortable | ~3 | 0.5 | – | O=C1[C@@H]2[C@H]3CC[C@H](C3)[C@@H]2C(=O)N1CCCCN1CCN(c2ncccn2)CC1 [Tandospirone, tandospirone] | – |
| decreased substantially | – | – | – | stings | tandospirone citrate [tandospirone citrate salt] | dramatically less than that of the free base |
